Eleven compounds from patent US9605007B2, “2-amino-6-methyl-4,4a,5,6-tetrahydropyrano[3,4-d][1,3]thiazin-8a(8H)-yl-1,3-thiazol-4-yl amides” (Pfizer Inc., priority 2014, dated 2017) can be followed below.

The term IC50 denotes the concentration at which inhibition is half-maximal. As a reminder, the efflux ratio is the permeability from basolateral to apical divided by that in the opposite direction, in the common usage.

The target of one series is CYP2D6 (Homo sapiens (Human), UniProt P10635). Description: General Multi-Point Cocktail DDI IC50 Assay (CYP2D6). The protocol:
General Multi-Point Cocktail DDI IC50 Assay Conditions:
The incubation volume is 0.1 mL, utilizing a 384-well plate format. […] Substrate concentrations are near Km values that had been previously determined and incubation times are selected based on determinations of reaction velocity linearity. […] Samples are directly injected on an HPLC/MS/MS system. A Biomek FX workstation is used for liquid handling and sample incubation.

Another series can be described thus: GSH Incubation Assay. It is filed as in vitro ADME. The following applies: for formation of GSH adducts: following incubations; for Observed GSH adducts: glutathione (50 mM) at 37° C. in buffer for 4 hours. The protocol: The test compound (10 μM in DMSO) was incubated with L-glutathione (50 mM, prepared in 100 mM potassium phosphate buffer) at 37° C. for 4 hours and then analyzed by HPLC-UV/MS/MS without work-up. Thermo Accela HPLC and Velos Pro Orbitrap Elite (S/N: SN05189B) operating in positive mode with a source voltage of 3.5 kV with data dependant processing. […] Product assignments were based on high resolution mass spectrometer fragmentation.

In series [1] the test system is MDR1 (P-glycoprotein). Description: Pgp Liability MDR1 Er. It is filed as in vitro ADME. The following applies: dog, MDCK-MDR1. The source says: (§1) MDR1 Efflux Ratio (MDR Er) from MDR1-transfected MDCK line cell line represents the ratio of permeability, Papp BA/AB.
The target in a further series is BACE1 (Homo sapiens (Human), UniProt P56817). Nature of the series: BACE1 Cell-Free Assay (fluorescence polarization). It counts as biochemical. The following applies: geometric mean of 2-4 determinations unless otherwise indicated (b: ≧5 determinations; c: single determination); read-out: BACE 1 Cell-free Assay IC50. The source says:
This assay measures the inhibition of the beta-secretase enzyme as it cleaves a non-native peptide.
A synthetic APP substrate that can be cleaved by beta-secretase having N-term inal biotin and made fluorescent by the covalent attachment of Oregon Green at the Cys residue is used to assay beta-secretase activity in the presence or absence of the inhibitory compounds. The substrate is Biotin-[…]-C[Oregon Green]KK-OH. The BACE1 enzyme is affinity purified material from conditioned media of CHO-K1 cells that have been transfected with a soluble BACE construct (BACE1deltaTM96His). […] Plates are covered and incubated for 3 hours at 37° C. […] The activity of the beta-secretase enzyme is detected by changes in the fluorescence polarization that occur when the substrate is cleaved by the enzyme.

For the next series, the system named is BACE2/BACE1. Description: BACE2/BACE1 Binding Ratio (scintillation proximity binding assays). Set-up: species or system human. The note with it: ratio of IC50 from respective binding assays, pH 6.0. As to the method:
BACE2/BACE1 Binding Ratio:
The BACE1 and BACE2 binding assays measured beta-site amyloid precursor protein-cleaving enzyme (BACE) binding as a decrease in the counts of radioligand bound in a scintillation proximity assay (SPA). […] Full length human BACE1 or BACE2 over-expressed in HEK cells was prepared by Pfizer scientists. Frozen stock cell paste was reacted in 50 mM sodium acetate buffer (pH=6.0) containing 3H-(4aR,6R,8aS)-8a-(2,4-difluorophenyl)-6-(1-methyl-1H-pyrazol-4-yl)-4,4a,5,6,8,8a-hexahydropyrano[3,4-d][1,3]thiazin-2-amine ligand, SPA bead and 60 μM to 600 pM of test compound in an assay volume of 27 uL. The compound plate also contained positive (BACE inhibitor) and negative (DMSO) control wells. The binding was carried out at room temperature for 30 minutes and then the plates were read on a TriLux Microbeta reader to determine the number of counts bound.
Background: SPA uses beads or plates that emit light when radiolabelled molecules are held near them.

Series [2] has as its system sAPPβ in H4 human neuroglioma cells over-expressing wild-type human APP695. Nature of the series: sAPPβ Whole-Cell Assay (WCA). It is filed as cell-based. The note with it: 18 h. The protocol:
sAPPβ Whole-Cell Assay (WCA):
sAPPβ, the primary cleavage product of BACE1, was determined in H4 human neuroglioma cells over-expressing the wild-type human APP695. […] The colorimetric reaction was read by an EnVision (PerkinElmer) plate-reader.

For series [3], the target named is MDR1 (P-glycoprotein) (Homo sapiens (Human), UniProt P08183). Nature of the series: Pgp Liability MDR1 Er. It is filed as in vitro ADME. The following applies: MDR1-transfected MDCK line, ratio of permeability Papp BA/AB.
Chain of MDR1 (P-glycoprotein) (Homo sapiens (Human), UniProt P08183) (P08183 whole entry): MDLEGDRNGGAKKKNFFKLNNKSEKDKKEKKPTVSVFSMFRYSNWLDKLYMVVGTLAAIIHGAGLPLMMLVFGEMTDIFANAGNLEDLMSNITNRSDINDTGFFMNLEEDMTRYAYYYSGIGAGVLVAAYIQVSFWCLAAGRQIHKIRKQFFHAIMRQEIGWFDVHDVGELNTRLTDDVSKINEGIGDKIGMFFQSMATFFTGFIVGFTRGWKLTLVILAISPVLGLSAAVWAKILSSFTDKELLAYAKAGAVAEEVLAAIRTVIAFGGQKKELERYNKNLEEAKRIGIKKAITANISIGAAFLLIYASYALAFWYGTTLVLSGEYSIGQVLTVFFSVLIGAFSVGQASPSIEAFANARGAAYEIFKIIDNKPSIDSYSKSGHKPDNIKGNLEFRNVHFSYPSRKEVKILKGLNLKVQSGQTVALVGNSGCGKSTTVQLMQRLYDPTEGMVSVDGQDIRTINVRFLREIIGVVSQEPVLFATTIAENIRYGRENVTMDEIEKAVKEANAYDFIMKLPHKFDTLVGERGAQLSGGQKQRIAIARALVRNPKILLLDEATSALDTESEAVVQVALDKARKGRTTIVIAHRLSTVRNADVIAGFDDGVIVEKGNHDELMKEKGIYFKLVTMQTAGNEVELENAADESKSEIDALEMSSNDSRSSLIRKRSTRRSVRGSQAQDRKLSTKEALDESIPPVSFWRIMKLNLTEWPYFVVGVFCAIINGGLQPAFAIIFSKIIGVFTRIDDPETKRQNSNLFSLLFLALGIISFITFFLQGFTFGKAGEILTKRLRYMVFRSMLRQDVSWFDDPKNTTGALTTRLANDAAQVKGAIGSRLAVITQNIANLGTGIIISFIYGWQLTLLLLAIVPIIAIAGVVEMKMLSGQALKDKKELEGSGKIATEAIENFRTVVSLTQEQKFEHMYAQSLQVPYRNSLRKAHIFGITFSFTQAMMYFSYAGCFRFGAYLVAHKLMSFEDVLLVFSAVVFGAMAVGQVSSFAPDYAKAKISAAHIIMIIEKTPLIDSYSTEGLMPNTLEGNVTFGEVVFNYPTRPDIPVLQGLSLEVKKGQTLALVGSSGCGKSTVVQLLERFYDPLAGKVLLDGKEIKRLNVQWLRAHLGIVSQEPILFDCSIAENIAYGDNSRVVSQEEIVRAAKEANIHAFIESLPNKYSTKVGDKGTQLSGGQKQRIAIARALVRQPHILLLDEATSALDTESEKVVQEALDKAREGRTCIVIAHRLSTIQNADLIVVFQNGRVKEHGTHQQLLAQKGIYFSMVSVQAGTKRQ
Text: as §1

Series [4] is described as follows: HLM CLint (clearance in human liver microsomes). It is filed as in vitro ADME. On the technique in general: Microsomes from liver hold many membrane-bound enzymes, among them those of drug oxidation.

Chain of CYP2D6 (P10635 whole entry): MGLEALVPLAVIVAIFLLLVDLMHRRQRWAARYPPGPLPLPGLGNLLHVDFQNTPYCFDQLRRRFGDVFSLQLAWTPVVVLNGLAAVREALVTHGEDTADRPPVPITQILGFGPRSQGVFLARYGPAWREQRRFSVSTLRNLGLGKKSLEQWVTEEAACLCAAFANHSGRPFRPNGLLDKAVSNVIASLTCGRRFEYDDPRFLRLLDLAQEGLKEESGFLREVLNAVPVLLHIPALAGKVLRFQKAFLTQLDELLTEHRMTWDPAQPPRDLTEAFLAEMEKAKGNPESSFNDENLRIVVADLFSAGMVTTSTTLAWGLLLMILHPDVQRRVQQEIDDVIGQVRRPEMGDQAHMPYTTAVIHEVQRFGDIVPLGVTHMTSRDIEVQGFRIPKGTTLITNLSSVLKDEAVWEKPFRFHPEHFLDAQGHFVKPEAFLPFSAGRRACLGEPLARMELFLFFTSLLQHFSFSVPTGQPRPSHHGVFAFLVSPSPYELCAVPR
Chain of BACE1 (P56817 46-457): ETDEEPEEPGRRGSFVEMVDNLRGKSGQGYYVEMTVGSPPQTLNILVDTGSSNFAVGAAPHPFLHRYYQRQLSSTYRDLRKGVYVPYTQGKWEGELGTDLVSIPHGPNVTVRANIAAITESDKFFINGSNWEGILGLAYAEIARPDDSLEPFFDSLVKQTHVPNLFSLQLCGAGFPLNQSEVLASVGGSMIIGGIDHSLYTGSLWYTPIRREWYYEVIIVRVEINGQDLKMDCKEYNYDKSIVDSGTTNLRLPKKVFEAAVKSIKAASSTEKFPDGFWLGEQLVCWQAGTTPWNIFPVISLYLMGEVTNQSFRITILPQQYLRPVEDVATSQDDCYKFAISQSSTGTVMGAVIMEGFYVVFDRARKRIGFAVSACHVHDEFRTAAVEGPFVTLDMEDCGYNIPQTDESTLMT

Regarding `C[C@H]1C[C@H]2CSC(N)=N[C@@]2(c2nc(NC(=O)c3ccc(Cl)cn3)cs2)CO1` [Example 7, N-{2-[(4aR,6S,8aR)-2-amino-6-methyl-4,4a,5,6-tetrahydropyrano[3,4-d][1,3]thiazin-8a(8H)-yl]-1,3-thiazol-4-yl}-5-chloropyridine-2-carboxamide], the IC50 against CYP2D6 was < 30000 nM. In “GSH Incubation Assay”, the “formation of GSH adducts” value was “not detected” and the “Observed GSH adducts” value is given as “Negative”.
Regarding `C[C@H]1C[C@H]2CSC(N)=N[C@@]2(c2nc(NC(=O)c3ccc(OC(F)F)cn3)cs2)CO1` [Example 1, N-{2-[(4aR,6S,8aR)-2-amino-6-methyl-4,4a,5,6-tetrahydropyrano[3,4-d][1,3]thiazin-8a(8H)-yl]-1,3-thiazol-4-yl}-5-(difluoromethoxy)pyridine-2-carboxamide], the IC50 against CYP2D6 was < 30000 nM. In “GSH Incubation Assay”, the “formation of GSH adducts” value is given as “not detected” and the “Observed GSH adducts” value is recorded as “Negative”.
Regarding `C[C@H]1C[C@H]2CSC(N)=N[C@@]2(c2nc(NC(=O)c3cnc(OC(F)F)cn3)cs2)CO1` [Example 2, N-{2-[(4aR,6S,8aR)-2-amino-6-methyl-4,4a,5,6-tetrahydropyrano[3,4-d][1,3]thiazin-8a(8H)-yl]-1,3-thiazol-4-yl}-5-(difluoromethoxy)pyrazine-2-carboxamide], the IC50 at CYP2D6 is < 30000 nM. In the series “GSH Incubation Assay”, the “formation of GSH adducts” value was “not detected” and the “Observed GSH adducts” value was “Negative”. Besides, the efflux ratio in the series with MDR1 (P-glycoprotein) [1] was < 2.5.
Turning to `C[C@H]1C[C@H]2CSC(N)=N[C@@]2(c2nc(NC(=O)c3ccn(C(F)F)n3)cs2)CO1` [Example 4, N-{2-[(4aR,6S,8aR)-2-amino-6-methyl-4,4a,5,6-tetrahydropyrano[3,4-d][1,3]thiazin-8a(8H)-yl]-1,3-thiazol-4-yl}-1-(difluoromethyl)-1H-pyrazole-3-carboxamide], the IC50 on BACE1 worked out at 0.9 nM.
`NC1=N[C@@]2(c3cc(NC(=O)c4ccc(OC(F)F)cn4)ccc3F)CO[C@@H](C(F)(F)F)C[C@H]2CS1` [Comparator 6]: the “BACE2/BACE1 Binding Ratio” value in the series on BACE2/BACE1 worked out at 1.0. Further, the IC50 in series [2] is < 1 nM. On MDR1 (P-glycoprotein) [3], the “Pgp liability MDR1 Er” value is 3.2.
With `NC1=N[C@@]2(c3cc(NC(=O)c4ccc(OC(F)F)cn4)ccc3F)COCC[C@H]2CS1` [Comparator 4], the “HLM CLint” value in series [4] was determined as 8.3 mL/m in/kg mL/min/kg. In series [2], the IC50 was < 1 nM. For the same compound, the “Pgp liability MDR1 Er” value on MDR1 (P-glycoprotein) [3] amounted to 6.8.
For `C[C@H]1C[C@H]2CSC(N)=N[C@@]2(c2nc(NC(=O)c3ccc(OC(F)F)cn3)ccc2F)CO1` [Comparator 2], the “HLM CLint” value in series [4] turned out to be 22.9 mL/min/kg.
As to `C[C@H]1C[C@H]2CSC(N)=N[C@@]2(c2nc(NC(=O)c3ccc(OC(F)F)cn3)cs2)CO1` [Comparator 1], at MDR1 (P-glycoprotein) [3], the “Pgp liability MDR1 Er” value is 7.1.
On to `C[C@H]1C[C@H]2CSC(N)=N[C@@]2(c2cc(NC(=O)c3ccc(Cl)cn3)ccc2F)CO1` [Comparator 7], for which the “BACE2/BACE1 Binding Ratio” value in the series with BACE2/BACE1 worked out at 1.0. Besides, the “HLM CLint” value in series [4] is recorded as 34.4 mL/min/kg. Besides, the IC50 in series [2] is < 1 nM.
For the compound `Cc1cc(OC(F)F)cnc1C(=O)Nc1csc([C@]23CO[C@@H](C)C[C@H]2CSC(N)=N3)n1` [Example 45, N-{2-[(4aR,6S,8aR)-2-amino-6-methyl-4,4a,5,6-tetrahydropyrano[3,4-d][1,3]thiazin-8a(8H)-yl]-1,3-thiazol-4-yl}-5-(difluoromethoxy)-3-methylpyridine-2-carboxamide], the IC50 against CYP2D6 is < 30000 nM. Further, in “GSH Incubation Assay”, the “formation of GSH adducts” value is reported as “not detected” and the “Observed GSH adducts” value is given as “Negative”.
With `C[C@H]1C[C@H]2CSC(N)=N[C@@]2(c2nc(NC(=O)c3coc(CF)n3)cs2)CO1` [Example 3, N-{2-[(4aR,6S,8aR)-2-amino-6-methyl-4,4a,5,6-tetrahydropyrano[3,4-d][1,3]thiazin-8a(8H)-yl]-1,3-thiazol-4-yl}-2-(fluoromethyl)-1,3-oxazole-4-carboxamide], the IC50 at BACE1 was 0.7 nM.
